Measured values from patent publication US20190125888A1, “TARGETED CONJUGATES AND PARTICLES AND FORMULATIONS THEREOF” (priority 2015, published 2019).
pIC50, pKi: −log10 of the molar value. Where two headings read alike, the source gives them in different places.

Key:
[1] = test system: NCI-H524 (ATCC) human lung cancer cells; assay type: cell-based
Description: FIG. 1 is a graph of various conjugates represented as bars and showing on the Y-axis their activity in an H524 proliferation assay with and without competition by octreotide. […] This illustrates the suprprising finding that only maytansinoid conjugates show activity that is dependent on the receptor.
Conjugates were assessed in an in vitro assay evaluating inhibition of cell proliferation. NCI-H524 (ATCC) human lung cancer cells were plated in 96 well, V-bottomed plates (Costar) at a concentration of 5,000 cells/well and 24 hours later were treated with compound for 6 hours and further incubated 66 hours. Compound starting dose was 20 μM and three fold serial dilutions were done for a total of ten points. After 6 hours of treatment, cells were spun down, the drug containing media was removed, and fresh complete medium was added and used to resuspend the cells, which were spun again. After removal of the wash media, the cells were resuspended in complete medium, then transferred into white walled, flat bottomed 96 well plates. […] Proliferation was measured using CellTiter Glo reagent using the standard protocol (Promega) and a Glomax multi+detection system (Promega). Percent proliferation inhibition was calculated using the following formula: % inhibition=(control-treatment)/control*100. Control is defined as vehicle alone. IC50 curves were generated using the nonlinear regression analysis (four parameter) with GraphPad Prism 6.
Conjugates were tested for their activity dependence on the somatostatin receptor. Active agent Z in the conjugate was selected from auristatin, carbazitaxel, DM1, doxorubicin, platinum, SN-38 and vinblastine. Active agent Z is connected to octreotide with various linkers. Proliferation IC50 values of the conjugates were measured. Proliferation IC50 values of the conjugates without octreotide competition were also measured. The ratio of IC50 with octreotide competition and IC50 without octreotide competition is an indicator of whether activity is at least particially dependent on bind to the somatostatin receptor. […] Therefore, the activity of conjugates comprising DM1 is dependent on the binding to the somatostatin receptor.

[2] = Ligand charge of maytansinoid conjugates; assay type: physicochemical
human SSTR2 = human SSTR2 (Homo sapiens, UniProt P30874); assay: Radioligand-receptor binding assay, [125I] somatostatin, membranes from SSTR2 expressing CHO-K1 cells
Description: These conjugates were also assessed in an in vitro assay evaluating binding to the somatostatin receptor 2 (SSTR2). A radioligand-receptor binding assay was conducted at Eurofins Panlabs (Taiwan) to determine the affinity of conjugates described herein to the SSTR2. The assay measures binding of radiolabeled ligand, [^125I] labeled somatostatin, to human SSTR2 using membrane preparations from SSTR2 expressing CHO-K1 cells. Membranes were incubated with radiolabeled somatostatin (0.03 nM) in the presence of conjugate/compound starting at a dose of 10 uM using 6× serial dilutions to obtain a 10-pt curve. After a four hour incubation, membranes were filtered and washed 3× and counted to determine the remaining [^125I] somatostatin bound to the receptor. IC50 values were determined by a non-linear, least squares regression analysis using MathIQ™ (ID Business Solutions Ltd., UK).

[3] = read-out: H524 IC50 6 h, 6 hours treatment, further 66 hours incubation
[4] = read-out: H524 IC50 with 100 μM octreotide 6 h, with 100 μM octreotide competition, 6 h treatment

human SSTR2, sequence (P30874 whole entry): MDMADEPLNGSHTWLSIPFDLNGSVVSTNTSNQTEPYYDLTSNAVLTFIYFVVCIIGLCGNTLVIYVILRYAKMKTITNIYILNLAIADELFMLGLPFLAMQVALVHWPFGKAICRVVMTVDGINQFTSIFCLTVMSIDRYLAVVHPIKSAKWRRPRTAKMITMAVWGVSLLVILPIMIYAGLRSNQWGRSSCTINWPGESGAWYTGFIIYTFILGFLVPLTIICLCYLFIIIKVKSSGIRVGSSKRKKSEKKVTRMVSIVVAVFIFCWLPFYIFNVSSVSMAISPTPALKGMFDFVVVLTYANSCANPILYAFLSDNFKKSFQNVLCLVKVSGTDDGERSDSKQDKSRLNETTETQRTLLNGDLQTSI

SMILES	pIC50 [1, 3]	pIC50 [1, 4]	Ligand charge [2]	pKi (human SSTR2)
COc1cc2cc(c1Cl)N(C)C(=O)C[C@H](OC(=O)[C@H](C)N(C)C(=O)CCSSC[C@H](NC(C)=O)C(=O)NC[C@H](NC(=O)[C@@H]1CSSC[C@H](NC(=O)[C@H](N)Cc3ccccc3)C(=O)N[C@@H](Cc3ccc(O)cc3)C(=O)N[C@H](Cc3c[nH]c4ccccc34)C(=O)N[C@@H](CCCCN)C(=O)N[C@@H]([C@@H](C)O)C(=O)N1)C(N)=O)[C@]1(C)O[C@H]1[C@H](C)[C@@H]1C[C@@](O)(NC(=O)O1)[C@H](OC)/C=C/C=C(\C)C2 [Conjugate 45]	8.89	6.81	+2	10.31
COc1cc2cc(c1Cl)N(C)C(=O)C[C@H](OC(=O)[C@H](C)N(C)C(=O)CCSSCCNC(=O)CC[C@H](NC(=O)[C@@H]1CSSC[C@H](NC(=O)[C@H](N)Cc3ccccc3)C(=O)N[C@@H](Cc3ccc(O)cc3)C(=O)N[C@H](Cc3c[nH]c4ccccc34)C(=O)N[C@@H](CCCCN)C(=O)N[C@@H]([C@@H](C)O)C(=O)N1)C(N)=O)[C@]1(C)O[C@H]1[C@H](C)[C@@H]1C[C@@](O)(NC(=O)O1)[C@H](OC)/C=C/C=C(\C)C2 [Conjugate 47]	9.15	6.68	+2	10.14
COc1cc2cc(c1Cl)N(C)C(=O)C[C@H](OC(=O)[C@H](C)N(C)C(=O)CCSSC[C@H](NC(=O)[C@@H]1CSSC[C@H](NC(=O)[C@@H](Cc3ccccc3)NC(C)=O)C(=O)N[C@@H](Cc3ccc(O)cc3)C(=O)N[C@H](Cc3c[nH]c4ccccc34)C(=O)N[C@@H](CCCCN)C(=O)N[C@@H]([C@@H](C)O)C(=O)N1)C(N)=O)[C@]1(C)O[C@H]1[C@H](C)[C@@H]1C[C@@](O)(NC(=O)O1)[C@H](OC)/C=C/C=C(\C)C2 [Conjugate 27]	7.77	7.31	+1	9.82
COc1cc2cc(c1Cl)N(C)C(=O)C[C@H](OC(=O)[C@H](C)N(C)C(=O)CCSSC(C)(C)[C@@H](NC(=O)[C@@H]1CSSC[C@H](NC(=O)[C@@H](Cc3ccccc3)NC(=O)NCc3ccccc3)C(=O)N[C@@H](Cc3ccc(O)cc3)C(=O)N[C@H](Cc3c[nH]c4ccccc34)C(=O)N[C@@H](CCCCN)C(=O)N[C@@H]([C@@H](C)O)C(=O)N1)C(N)=O)[C@]1(C)O[C@H]1[C@H](C)[C@@H]1C[C@@](O)(NC(=O)O1)[C@H](OC)/C=C/C=C(\C)C2 [Conjugate 9]	6.68	6.09	+1	8.50
COc1cc2cc(c1Cl)N(C)C(=O)C[C@H](OC(=O)[C@H](C)N(C)C(=O)CCSSC[C@H](NC(=O)CC[C@H](NC(=O)[C@@H]1CSSC[C@H](NC(=O)[C@H](N)Cc3ccccc3)C(=O)N[C@@H](Cc3ccc(O)cc3)C(=O)N[C@H](Cc3c[nH]c4ccccc34)C(=O)N[C@@H](CCCCN)C(=O)N[C@@H]([C@@H](C)O)C(=O)N1)C(N)=O)C(N)=O)[C@]1(C)O[C@H]1[C@H](C)[C@@H]1C[C@@](O)(NC(=O)O1)[C@H](OC)/C=C/C=C(\C)C2 [Conjugate 46]	9.52	6.71	+2	10.35
COc1cc2cc(c1Cl)N(C)C(=O)C[C@H](OC(=O)[C@H](C)N(C)C(=O)CCSSC[C@H](NC(=O)[C@@H]1CSSC[C@H](NC(=O)[C@@H](Cc3ccccc3)NCc3ccccc3)C(=O)N[C@@H](Cc3ccc(O)cc3)C(=O)N[C@H](Cc3c[nH]c4ccccc34)C(=O)N[C@@H](CCCCN)C(=O)N[C@@H]([C@@H](C)O)C(=O)N1)C(N)=O)[C@]1(C)O[C@H]1[C@H](C)[C@@H]1C[C@@](O)(NC(=O)O1)[C@H](OC)/C=C/C=C(\C)C2 [Conjugate 43]	8.14	7.70	+2	10.12
COc1cc2cc(c1Cl)N(C)C(=O)C[C@H](OC(=O)[C@H](C)N(C)C(=O)CCSSCCNC(=O)CC[C@H]1C(=O)N[C@@H](Cc3ccc(O)cc3)C(=O)N[C@H](Cc3c[nH]c4ccccc34)C(=O)N[C@@H](CCCCNC(=O)NCCCCCCN)C(=O)N[C@@H]([C@@H](C)O)C(=O)N[C@@H](Cc3ccccc3)C(=O)N1C)[C@]1(C)O[C@H]1[C@H](C)[C@@H]1C[C@@](O)(NC(=O)O1)[C@H](OC)/C=C/C=C(\C)C2 [Conjugate 55]	–	–	+1	6.96
COc1cc2cc(c1Cl)N(C)C(=O)C[C@H](OC(=O)[C@H](C)N(C)C(=O)CCSC1CC(=O)N(CCCNC(=O)CC[C@H](NC(=O)[C@@H]3CSSC[C@H](NC(=O)[C@H](N)Cc4ccccc4)C(=O)N[C@@H](Cc4ccc(O)cc4)C(=O)N[C@H](Cc4c[nH]c5ccccc45)C(=O)N[C@@H](CCCCN)C(=O)N[C@@H]([C@@H](C)O)C(=O)N3)C(N)=O)C1=O)[C@]1(C)O[C@H]1[C@H](C)[C@@H]1C[C@@](O)(NC(=O)O1)[C@H](OC)/C=C/C=C(\C)C2 (some centres unmarked) [Conjugate 48]	8.05	6.80	+2	9.68
COC(=O)N[C@H](Cc1ccccc1)C(=O)N[C@H]1CSSC[C@@H](C(=O)N[C@@H](CSSCCC(=O)N(C)[C@@H](C)C(=O)O[C@H]2CC(=O)N(C)c3cc(cc(OC)c3Cl)C/C(C)=C/C=C/[C@@H](OC)[C@@]3(O)C[C@H](OC(=O)N3)[C@@H](C)[C@@H]3O[C@@]23C)C(N)=O)NC(=O)[C@H]([C@@H](C)O)NC(=O)[C@H](CCCCN)NC(=O)[C@@H](Cc2c[nH]c3ccccc23)NC(=O)[C@H](Cc2ccc(O)cc2)NC1=O [Conjugate 35]	7.57	7.77	+1	10.62
COc1cc2cc(c1Cl)N(C)C(=O)C[C@H](OC(=O)[C@H](C)N(C)C(=O)CCSSC[C@@H](NC(=O)[C@@H]1CSSC[C@H](NC(=O)[C@@H](Cc3ccccc3)NC(=O)C(F)(F)F)C(=O)N[C@@H](Cc3ccc(O)cc3)C(=O)N[C@H](Cc3c[nH]c4ccccc34)C(=O)N[C@@H](CCCCN)C(=O)N[C@@H]([C@@H](C)O)C(=O)N1)C(N)=O)[C@]1(C)O[C@H]1[C@H](C)[C@@H]1C[C@@](O)(NC(=O)O1)[C@H](OC)/C=C/C=C(\C)C2 [Conjugate 32]	7.48	7.01	+1	9.09
COc1cc2cc(c1Cl)N(C)C(=O)C[C@H](OC(=O)[C@H](C)N(C)C(=O)CCSSC[C@@H](NC(=O)[C@@H]1CSSC[C@H](NC(=O)[C@@H](Cc3ccccc3)NC(C)=O)C(=O)N[C@@H](Cc3ccc(O)cc3)C(=O)N[C@H](Cc3c[nH]c4ccccc34)C(=O)N[C@@H](CCCCN)C(=O)N[C@@H]([C@@H](C)O)C(=O)N1)C(N)=O)[C@]1(C)O[C@H]1[C@H](C)[C@@H]1C[C@@](O)(NC(=O)O1)[C@H](OC)/C=C/C=C(\C)C2 [Conjugate 31]	–	–	+1	9.68
COc1cc2cc(c1Cl)N(C)C(=O)C[C@H](OC(=O)[C@H](C)N(C)C(=O)CCSSC(C)(C)[C@@H](NC(=O)[C@@H]1CSSC[C@H](NC(=O)[C@H](N)Cc3ccccc3)C(=O)N[C@@H](Cc3ccc(O)cc3)C(=O)N[C@H](Cc3c[nH]c4ccccc34)C(=O)N[C@@H](CCCCN)C(=O)N[C@@H]([C@@H](C)O)C(=O)N1)C(N)=O)[C@]1(C)O[C@H]1[C@H](C)[C@@H]1C[C@@](O)(NC(=O)O1)[C@H](OC)/C=C/C=C(\C)C2 [Conjugate 8]	6.57	6.33	+2	9.10
COc1cc2cc(c1Cl)N(C)C(=O)C[C@H](OC(=O)[C@H](C)N(C)C(=O)CCSSC(C)(C)[C@H](NC(=O)[C@@H](NC(=O)[C@@H]1CSSC[C@H](NC(=O)[C@@H](Cc3ccccc3)NCc3ccccc3)C(=O)N[C@@H](Cc3ccc(O)cc3)C(=O)N[C@H](Cc3c[nH]c4ccccc34)C(=O)N[C@@H](CCCCN)C(=O)N[C@@H]([C@@H](C)O)C(=O)N1)[C@@H](C)O)C(N)=O)[C@]1(C)O[C@H]1[C@H](C)[C@@H]1C[C@@](O)(NC(=O)O1)[C@H](OC)/C=C/C=C(\C)C2 [Conjugate 17]	8.07	7.32	+2	–
